Our source for the Activity and Blood volume values is ChEMBL document CHEMBL1134182, “Modified synthesis and antiangiogenic activity of linomide” (2001).

SMILES strings stand for the structures.

The test system of assay [1] is Mus musculus. The experiment in a line: In vivo effect of compound on VEGF-induced angiogenesis in blood vessels of mice. Format: functional.
The subject of assay [2] is Mus musculus. Nature of the assay: In vivo effect of compound on VEGF-induced angiogenesis in blood volume of mice. Format: functional.

`CN(C(=O)c1c(O)c2ccccc2n(C)c1=O)c1ccccc1` [ROQUINIMEX]: in the assay on Mus musculus [1], the Activity is <3.48%. For the same compound, the Blood volume in the assay with Mus musculus [2] is listed as <0.33 HB g ml-1.
